Measurements reported in BindingDB's records for doi:10.1021/acschembio.7b00653 (University of Konstanz, 2017).

Molecular target: T1, AP-4-A phosphorylase (Mycobacterium tuberculosis (strain ATCC 25618 / H37Rv), UniProt P9WMK9)
T1 sequence (P9WMK9 whole entry): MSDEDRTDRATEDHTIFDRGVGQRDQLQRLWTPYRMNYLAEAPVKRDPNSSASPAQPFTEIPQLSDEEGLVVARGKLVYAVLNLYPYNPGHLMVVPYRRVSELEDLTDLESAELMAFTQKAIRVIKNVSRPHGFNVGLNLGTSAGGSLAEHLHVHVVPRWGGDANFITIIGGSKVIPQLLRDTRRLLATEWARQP
Test: FRET assay
Settings: pH 8
Description: Dose response curves against Rv2613c with 1 as the substrate for derivatives 5 and 18. 8 nM of Rv2613c were preincubated in buffer (20 mM Tris-HCl (pH 8.0), 50 mM NaCl, 1 mM DTT, 0.2 mg/mL BSA, 5 mM NaH2PO4, 5 mM MgCl2) with indicated amounts of compound solved in DMSO at 25°C for 30 min. Substrate 1 (2 µM in Tris-HCl buffer pH 8.0) was added Measurement of the fluorescence at 570 nm was conducted every 3 min over 1 h. Turnover of probe 1 was calculated by normalization to the intensity of controls. The rate of probe 1 turnover was obtained by linear fitting of probe 1 turnover over time. % Inhibition was calculated relative to the controls. The IC50 was calculated by a non-linear curve fit/dose response curve in Origin.

SMILES: CCCc1cccc(N/C(SC)=C(\C#N)S(=O)(=O)c2ccccc2)c1 [Synthesized Sulfanylacrylonitril Derivatives 19]
- IC50: 960 nM

SMILES: CC(C)S/C(Nc1cccc(C(F)(F)F)c1)=C(/C#N)S(=O)(=O)c1ccccc1 [Synthesized Sulfanylacrylonitril Derivatives 11]
- IC50: 940 nM

SMILES: COc1cccc(N/C(SC)=C(\C#N)S(=O)(=O)c2ccccc2)c1 [Synthesized Sulfanylacrylonitril Derivatives 21]
- IC50: 11300 nM

SMILES: CCCS/C(Nc1cccc(C(F)(F)F)c1)=C(/C#N)S(=O)(=O)c1ccccc1 [Synthesized Sulfanylacrylonitril Derivatives 10]
- IC50: 470 nM

SMILES: CS/C(Nc1cc(C(F)(F)F)cc(C(F)(F)F)c1)=C(/C#N)S(=O)(=O)c1ccccc1 [Synthesized Sulfanylacrylonitril Derivatives 8]
- IC50: > 100000 nM

SMILES: N#C/C(=C(\Nc1cccc(C(F)(F)F)c1)SCc1ccccc1)S(=O)(=O)c1ccccc1 [Synthesized Sulfanylacrylonitril Derivatives 12]
- IC50: 800 nM

SMILES: CS/C(Nc1ccc(C(F)(F)F)cc1)=C(/C#N)S(=O)(=O)c1ccccc1 [Synthesized Sulfanylacrylonitril Derivatives 7]
- IC50: 16300 nM

SMILES: CS/C(Nc1cccc(C(F)(F)F)c1)=C(/C#N)S(=O)(=O)c1ccccc1 [Synthesized Sulfanylacrylonitril Derivatives 5]
- IC50: 120 nM

SMILES: CS/C(Nc1cccc(C)c1)=C(/C#N)S(=O)(=O)c1ccccc1 [Synthesized Sulfanylacrylonitril Derivatives 14]
- IC50: 4620 nM

SMILES: CS/C(Nc1cccc(C(F)(F)F)c1)=C(/C#N)S(=O)(=O)c1ccc(Cl)cc1 [Synthesized Sulfanylacrylonitril Derivatives 2]
- IC50: 260 nM

SMILES: CS/C(Nc1cccc([N+](=O)[O-])c1)=C(/C#N)S(=O)(=O)c1ccccc1 [Synthesized Sulfanylacrylonitril Derivatives 15]
- IC50: 1300 nM

SMILES: CS/C(Nc1ccccc1C(F)(F)F)=C(/C#N)S(=O)(=O)c1ccccc1 [Synthesized Sulfanylacrylonitril Derivatives 6]
- IC50: > 100000 nM

SMILES: CS/C(Nc1cc(C)cc(C)c1)=C(/C#N)S(=O)(=O)c1ccccc1 [Synthesized Sulfanylacrylonitril Derivatives 22]
- IC50: > 100000 nM

SMILES: COC(=O)c1cccc(N/C(SC)=C(\C#N)S(=O)(=O)c2ccccc2)c1 [Synthesized Sulfanylacrylonitril Derivatives 17]
- IC50: 21800 nM

SMILES: CCc1cccc(N/C(SC)=C(\C#N)S(=O)(=O)c2ccccc2)c1 [Synthesized Sulfanylacrylonitril Derivatives 18]
- IC50: 570 nM

SMILES: CS/C(Nc1ccccc1)=C(/C#N)S(=O)(=O)c1ccccc1 [Synthesized Sulfanylacrylonitril Derivatives 3]
- IC50: > 30000 nM

SMILES: CS/C(Nc1cccc(C#N)c1)=C(/C#N)S(=O)(=O)c1ccccc1 [Synthesized Sulfanylacrylonitril Derivatives 16]
- IC50: 2510 nM

SMILES: CS/C(Nc1ccccc1)=C(/C#N)S(=O)(=O)c1ccc(Cl)cc1 [Synthesized Sulfanylacrylonitril Derivatives 4]
- IC50: > 100000 nM

SMILES: CS/C(Nc1cccc(C(C)C)c1)=C(/C#N)S(=O)(=O)c1ccccc1 [Synthesized Sulfanylacrylonitril Derivatives 20]
- IC50: 1770 nM
